{"source": "patent US7947852B2", "about": "“Naphthalene compounds, a process for their preparation and pharmaceutical compositions containing them” (Les Laboratoires Servier, priority 2007, dated 2011)", "key": {"MT1 receptor": {"target": "MT1 receptor (Homo sapiens, UniProt P48039)", "sequence (P48039 whole entry)": "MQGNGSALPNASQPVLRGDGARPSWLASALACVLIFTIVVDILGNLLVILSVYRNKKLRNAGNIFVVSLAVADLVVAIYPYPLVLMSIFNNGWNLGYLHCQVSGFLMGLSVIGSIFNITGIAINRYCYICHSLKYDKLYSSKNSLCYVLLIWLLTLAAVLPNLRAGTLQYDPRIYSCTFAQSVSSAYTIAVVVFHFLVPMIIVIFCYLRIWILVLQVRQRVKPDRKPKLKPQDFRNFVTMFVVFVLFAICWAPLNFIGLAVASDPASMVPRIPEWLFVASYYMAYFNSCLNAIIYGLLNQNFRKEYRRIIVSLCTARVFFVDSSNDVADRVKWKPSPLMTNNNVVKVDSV", "experiment": "Melatonin MT1 receptor binding study", "conditions": "2-[125I]-iodomelatonin radioligand, competitive binding", "procedure": "(§1) The MT1 or MT2 receptor binding experiments are carried out using 2-[^125I]-iodomelatonin as reference radioligand. The radioactivity retained is determined using a liquid scintillation counter.\n(§2) Competitive binding experiments are then carried out in triplicate using the various test compounds. A range of different concentrations is tested for each compound. The results enable the binding affinities of the compounds tested (Ki) to be determined."}, "MT2 receptor": {"target": "T1, MT2 receptor (Homo sapiens, UniProt P49286)", "T1 sequence (P49286 1-362)": "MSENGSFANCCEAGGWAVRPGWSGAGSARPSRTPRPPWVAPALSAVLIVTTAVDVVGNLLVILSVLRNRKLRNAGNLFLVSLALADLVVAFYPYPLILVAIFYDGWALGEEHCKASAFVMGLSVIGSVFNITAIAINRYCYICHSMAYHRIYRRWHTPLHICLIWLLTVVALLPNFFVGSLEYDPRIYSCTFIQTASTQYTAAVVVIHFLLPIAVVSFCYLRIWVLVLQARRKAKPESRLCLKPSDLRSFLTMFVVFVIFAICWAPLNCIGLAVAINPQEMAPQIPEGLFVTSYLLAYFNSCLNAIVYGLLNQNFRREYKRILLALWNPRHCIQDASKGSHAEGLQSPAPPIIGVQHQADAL", "experiment": "Melatonin MT2 receptor binding study", "conditions": "2-[125I]-iodomelatonin radioligand, competitive binding", "procedure": "as §1, §2"}}, "note": "pKi: −log10 of the molar value."}
{"smiles": "COc1ccc2cccc(/C(CNC(C)=O)=N\\O)c2c1", "note": "[Example 2, N-[(2E)-2-(Hydroxyimino)-2-(7-methoxy-1-naphthyl)ethyl]acetamide]", "values": [{"measurement": "pKi", "setting": "MT1 receptor", "result": 8.15}, {"measurement": "pKi", "setting": "MT2 receptor", "result": 9.10}]}
